# Patent EP4818312A2
# Conditions: from C=C[C@@H]1OC(c2ccc(OC)cc2)O[C@]1(C)CC[C@H](CC(=O)O[C@H](/C(C)=C/I)[C@@H](C)C=C)O[Si](C)(C)C(C)(C)C; rcm bond; Hoveyda-Grubbs 2nd generation; toluene; 6.52 mM; 110.0 °C; 5.0 h
smiles,measurement,value
COc1ccc(C2O[C@H]3C=C[C@H](C)[C@@H](/C(C)=C/I)OC(=O)C[C@H](O[Si](C)(C)C(C)(C)C)CC[C@@]3(C)O2)cc1 (stereo partly shown),"ring closure, yield of all isomers",50%
